ChEMBL document CHEMBL1201862, “PubChem BioAssay data set” (2004)
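48-hour exposure; five concentrations; linearly interpolated endpoints. At the GI50, growth is halved.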 Calls of active or inactive are those of the source. Rule as the data show it: active = GI50 up to about 1.1 µM and inactive = higher.

Tests used:
Test in all cases: growth of human tumour cells (NCI), 48 h
NCI-H460 = test system: NCI-H460
SK-MEL-2 = test system: SK-MEL-2
SK-MEL-5 = test system: SK-MEL-5
OVCAR-4 = test system: OVCAR-4
DMS-273 = test system: DMS-273
K562 = test system: K562
SNB-75 = test system: SNB-75
HCC 2998 = test system: HCC 2998
SK-MEL-28 = test system: SK-MEL-28
HT-29 = test system: HT-29
SNB-19 = test system: SNB-19
SK-OV-3 = test system: SK-OV-3
COLO 205 = test system: COLO 205
NCI-H23 = test system: NCI-H23
A498 = test system: A498
SF-268 = test system: SF-268

Measured: GI50

CCCCCCCCOCC(O)CO (centres undefined)
inactive: NCI-H460 > 100 µM | SK-MEL-2 > 100 µM | SK-MEL-5 > 100 µM | OVCAR-4 > 100 µM | DMS-273 > 100 µM | K562 > 100 µM | SNB-75 43.3 µM | HCC 2998 89.5 µM | SK-MEL-28 > 100 µM | HT-29 > 100 µM | SNB-19 > 100 µM | SK-OV-3 > 100 µM | COLO 205 > 100 µM | NCI-H23 > 100 µM | A498 > 100 µM | SF-268 > 100 µM

CC(C)(CN1CCCCC1)C(=O)/C=C/c1ccc(Cl)cc1
inactive: NCI-H460 2.69 µM | SK-MEL-5 3.08 µM | OVCAR-4 4.27 µM | DMS-273 3.52 µM | K562 2.69 µM | SNB-75 2.44 µM | HCC 2998 13.2 µM | SK-MEL-28 8.17 µM | HT-29 3.22 µM | SNB-19 5.15 µM | SK-OV-3 11.2 µM | COLO 205 4.82 µM | NCI-H23 2.69 µM | A498 2.73 µM | SF-268 3.34 µM

Cc1ccc(NC(=O)/C(=N/NC(=O)CC#N)C2C(=O)N(c3ccccc3)N=C2N)cc1C (centres undefined)
inactive: NCI-H460 > 100 µM | SK-MEL-2 > 100 µM | SK-MEL-5 > 100 µM | OVCAR-4 > 100 µM | DMS-273 > 100 µM | K562 > 100 µM | SNB-75 > 100 µM | HCC 2998 > 100 µM | SK-MEL-28 > 100 µM | HT-29 > 100 µM | SNB-19 > 100 µM | SK-OV-3 > 100 µM | COLO 205 > 100 µM | NCI-H23 > 100 µM | A498 > 100 µM | SF-268 > 100 µM

C/C(=N/NS(=O)(=O)c1ccccc1)c1cccc[n+]1[O-]
inactive: NCI-H460 > 100 µM | SK-MEL-5 > 100 µM | OVCAR-4 > 100 µM | DMS-273 > 100 µM | SNB-75 > 100 µM | HCC 2998 > 100 µM | SK-MEL-28 > 100 µM | HT-29 > 100 µM | SNB-19 > 100 µM | SK-OV-3 > 100 µM | NCI-H23 > 100 µM | A498 > 100 µM | SF-268 > 100 µM

CC(C)C1(O)C(c2ccccc2)=C(c2ccccc2)C(c2ccccc2)=C1c1ccccc1
inactive: NCI-H460 6.95 µM | SK-MEL-2 5.33 µM | SK-MEL-5 10.6 µM | OVCAR-4 5.73 µM | DMS-273 4.46 µM | K562 3.52 µM | SNB-75 12.3 µM | HCC 2998 8.69 µM | HT-29 4.26 µM | SNB-19 21.8 µM | SK-OV-3 15.2 µM | COLO 205 10.1 µM | NCI-H23 9.59 µM | A498 15.2 µM | SF-268 4.49 µM

CCCCCCCCCCCCCCCCCC(=O)OCC(C[As](=O)(O)O)OC(=O)CCCCCCCCCCCCCCCCC (centres undefined)
inactive: NCI-H460 > 100 µM | SK-MEL-2 70.1 µM | SK-MEL-5 > 100 µM | OVCAR-4 > 100 µM | DMS-273 65.3 µM | K562 44.7 µM | SNB-75 29.4 µM | HCC 2998 > 100 µM | SK-MEL-28 > 100 µM | HT-29 34.4 µM | SNB-19 20.2 µM | SK-OV-3 18.2 µM | NCI-H23 34 µM | A498 > 100 µM | SF-268 43.2 µM

CC12C3CC4C5CC(C(C53)[C@@H]1NCc1ccccc1)C42 (some centres undefined)
inactive: NCI-H460 > 100 µM | SK-MEL-2 > 100 µM | SK-MEL-5 31.5 µM | OVCAR-4 > 100 µM | DMS-273 > 100 µM | K562 62.7 µM | SNB-75 > 100 µM | HCC 2998 15.5 µM | SK-MEL-28 > 100 µM | HT-29 24.4 µM | SNB-19 > 100 µM | SK-OV-3 > 100 µM | COLO 205 18.5 µM | NCI-H23 > 100 µM | A498 > 100 µM | SF-268 > 100 µM

O=C(Cc1nc2sc3c(c2c(=O)[nH]1)CCCC3)Nc1ccccc1
inactive: NCI-H460 > 100 µM | SK-MEL-2 > 100 µM | SK-MEL-5 > 100 µM | OVCAR-4 > 100 µM | DMS-273 > 100 µM | K562 > 100 µM | SNB-75 25.1 µM | HCC 2998 > 100 µM | SK-MEL-28 > 100 µM | HT-29 > 100 µM | SNB-19 81.8 µM | SK-OV-3 43.5 µM | COLO 205 > 100 µM | NCI-H23 > 100 µM | A498 > 100 µM | SF-268 > 100 µM

CN(C)CCC1(C2=CCCC2)CC/C(=C\c2ccc(Cl)cc2)C1=O (centres undefined)
inactive: NCI-H460 10.9 µM | SK-MEL-2 4.45 µM | SK-MEL-5 1.99 µM | OVCAR-4 9.46 µM | DMS-273 10.8 µM | K562 2.58 µM | SNB-75 6.85 µM | HCC 2998 7.82 µM | SK-MEL-28 2.49 µM | HT-29 2.95 µM | SNB-19 11.3 µM | SK-OV-3 6.93 µM | COLO 205 12.4 µM | NCI-H23 14.5 µM | A498 6.25 µM | SF-268 11.8 µM

O=C(CC(O)(c1ccccc1)c1ccc(Cl)cc1)NC(=O)c1ccccc1O (centres undefined)
inactive: NCI-H460 4.37 µM | SK-MEL-2 5.3 µM | SK-MEL-5 6.52 µM | OVCAR-4 5.74 µM | DMS-273 13.2 µM | K562 4.6 µM | SNB-75 6.44 µM | HCC 2998 4.99 µM | SK-MEL-28 19.8 µM | HT-29 18.8 µM | SNB-19 4.47 µM | SK-OV-3 17.1 µM | COLO 205 14.4 µM | NCI-H23 6.5 µM | A498 1.95 µM | SF-268 7.28 µM
